In ChEMBL document CHEMBL3813603, “Selective anti-malarial minor groove binders” (Bioorg Med Chem Lett, 2016):
pIC50: −log10 of the molar value.

Experiments:
[1] = system: Plasmodium falciparum; experiment: Antimalarial activity against Plasmodium falciparum 3D7 incubated for 72 hours by DAPI-staining based confocal imaging analysis; format: functional, organism-based; details: for pIC50: Plasmodium falciparum, 3D7, 72 h, read-out: IC50
[2] = system: Plasmodium falciparum; experiment: Antimalarial activity against Plasmodium falciparum Dd2 incubated for 72 hours by DAPI-staining based confocal imaging analysis; format: functional, organism-based; details: Dd2, 72 h
[3] = system: HEK293; experiment: (§1) Cytotoxicity against HEK293 cells at 20 uM by alamar blue assay; format: cell-based; details: human, hek293, 20 µM
[4] = Therapeutic ratio of IC50 for HEK293 cells to IC50 for Plasmodium falciparum 3D7; format: cell-based; details: human, HEK293 cells versus Plasmodium falciparum 3D7; read-out: Ratio IC50
[5] = system: Plasmodium falciparum; experiment: Antimalarial activity against Plasmodium falciparum 3D7 at 20 uM incubated for 72 hours by DAPI-staining based confocal imaging analysis; format: functional; details: 3D7, 72 h
[6] = system: Plasmodium falciparum; experiment: Antimalarial activity against Plasmodium falciparum Dd2 at 20 uM incubated for 72 hours by DAPI-staining based confocal imaging analysis; format: functional; details: Dd2, 72 h
[7] = as §1; format: cell-based; details: human, HEK293 cells; read-out: INH
[8] = system: HEK293; experiment: Cytotoxicity against HEK293 cells by alamar blue assay; format: cell-based; details: Homo sapiens
[9] = Cytotoxicity against HEK293 cells at 10 uM by alamar blue assay; format: cell-based; details: human, read-out: INH

Row | Compound | pIC50 [1] | pIC50 [2] | Activity [3] | selectivity ratio [4] | further results
1 | CN(C)CCCNC(=O)c1cc(NC(=O)c2cc(NC(=O)c3cc(NC(=N)c4ccccc4)cn3C)cn2C)cn1C |  |  | Non-toxic |  | inhibition at 20 µM [5]: 90%; inhibition at 20 µM [6]: 63%
2 | Cn1cc(NC(=O)c2cc(NC(=O)c3ccc(/C=C/c4ccc5nsnc5c4)cc3)cn2C)cc1C(=O)NCCN1CCOCC1 | 5.22 | 5.29 | Non-toxic |  | 
3 | CN(C)CCCn1cnc(NC(=O)c2cc(NC(=O)c3cc(NC(=O)c4cc5ccccc5cn4)cn3C)cn2C)c1.O=C(O)C(F)(F)F | 5.26 | 5.35 | Non-toxic |  | 
4 | CCc1nc(N)nc(N)c1-c1ccc(Cl)cc1 [PYRIMETHAMINE] | 8.07 | < 6.92 |  | 955 | pIC50 [8]: 5.09
5 | Cn1cc(NC(=O)c2cc(NC(=O)c3cc(NC(=O)c4cc5ccccc5cn4)cn3C)cn2C)cc1C(=O)NCCCN1CCOCC1 | 5.10 | 5.22 | Non-toxic |  | 
6 | CCN(CC)CCCC(C)Nc1ccnc2cc(Cl)ccc12 (configuration not stated) [CHLOROQUINE] |  |  |  |  | pIC50 [8]: < 3.92
7 | COc1ccc(C[C@H](N)C(=O)N[C@H]2[C@@H](O)[C@H](n3cnc4c(N(C)C)ncnc43)O[C@@H]2CO)cc1 [PUROMYCIN] | 7.22 | 7.21 |  | 6 | 
8 | COc1cccc(C(=N)Nc2cc(C(=O)Nc3cc(C(=O)Nc4cc(C(=O)NCCCN(C)C)n(C)c4)n(C(C)C)c3)n(C)c2)c1 | 5.00 |  | Non-toxic |  | inhibition at 20 µM [6]: 100%
9 | CN(C)CCCNC(=O)c1cc(NC(=O)c2cc(NC(=O)c3cc4ccccc4cn3)cn2C)cn1C | 5.33 | 5.36 | Non-toxic |  | 
10 | Cn1cc(NC(=O)c2cc(NC(=O)c3cc(NC=O)cn3C)cn2C)cc1C(=O)NCCN1CCOCC1 |  |  | Non-toxic |  | inhibition at 20 µM [5]: 98%; inhibition at 20 µM [6]: 25%
11 | COc1cccc(C(=N)Nc2cc(C(=O)Nc3cc(C(=O)Nc4cc(C(=O)NCCCN5CCOCC5)n(C)c4)n(C)c3)n(C)c2)c1 |  |  | Non-toxic |  | IC50 [1]: Not Active; inhibition at 20 µM [6]: 35%
12 | C[C@@H]1CC[C@H]2[C@@H](C)C(=O)O[C@@H]3O[C@@]4(C)CC[C@@H]1[C@]32OO4 [ARTEMISININ] |  | 8.05 |  | > 10000 | pIC50 [8]: < 3.92
13 | Cn1cc(NC(=O)c2cc(NC(=O)c3cc4ccccc4cn3)cn2C)cc1C(=O)NCCN1CCOCC1 | 5.37 | 5.49 | Non-toxic |  | 
14 | CC(=N)Nc1cc(C(=O)Nc2cc(C(=O)Nc3cc(C(=O)NCCCN(C)C)n(C)c3)n(C)c2)n(C)c1 | 5.19 | 5.19 | Non-toxic |  | 
15 | CC(C)n1cc(NC(=O)c2cc(NC(=O)c3cnc(Cl)c(Cl)c3)cn2C)cc1C(=O)Nc1cc(C(=O)NCCCN(C)C)n(C)c1 |  |  | Non-toxic |  | inhibition at 20 µM [5]: 75%; inhibition at 20 µM [6]: 65%

Now from value to compound, other results behind:

Row | pIC50 [1] | pIC50 [2] | Compound | Activity [3] | selectivity ratio [4] | further results
16 | 5.48 | 5.56 | Cn1cc(NC(=O)c2cc(NC(=O)c3ccc(/C=C/c4cccc(F)c4)cc3)cn2C)cc1C(=O)NCCN1CCOCC1 | Non-toxic |  | 
17 | 7.41 | 7.42 | Cn1cc(NC(=O)c2cc(NC(=O)c3ccc(/C=C/c4nc5ccccc5o4)cc3)cn2C)cc1C(=O)NCCN1CCOCC1 | Non-toxic | > 514 | 
18 | 6.26 | 5.95 | COc1cccc(/C=C/c2ccc(C(=O)Nc3cc(C(=O)Nc4nc(C(=O)NCCCN(C)C)c(CCC(C)C)s4)n(C)c3)cc2)c1 |  | > 36 | cytotoxicity at 20 µM [7]: 86%
19 | 5.45 | 5.43 | Cn1cc(NC(=O)c2cc(NC(=O)c3ccc(/C=C/c4ccc(C(F)(F)F)cc4)cc3)cn2C)cc1C(=O)NCCN1CCOCC1 | Non-toxic |  | 
20 | 5.71 | 5.52 | COc1ccc(/C=C/c2ccc3cc(C(=O)Nc4cc(C(=O)Nc5cc(C(=O)NCCN6CCOCC6)n(C)c5)n(C)c4)ccc3n2)cc1 | Non-toxic |  | 
21 | 5.85 | 5.70 | CC(C)CCc1sc(NC(=O)c2cc(NC(=O)c3cc4ccccc4cn3)cn2C)nc1C(=O)NCCCN(C)C | Non-toxic |  | 
22 | 5.74 | 5.51 | Cn1cc(NC(=O)c2cc(NC(=O)c3cc(NC(=O)c4ccc(Cl)cc4Cl)cn3C)cn2C)cc1C(=O)NCCN1CCOCC1 | Non-toxic |  | 
23 | 5.72 | 5.64 | Cn1cc(NC(=O)c2cc(NC(=O)c3ccc(/C=C/c4ccc5nonc5c4)cc3)cn2C)cc1C(=O)NCCN1CCOCC1 | Non-toxic |  | 
24 | 6.46 | 6.47 | CC(C)CCc1sc(NC(=O)c2cc(NC(=O)c3cc(/C=C/c4ccc([N+](=O)[O-])cc4)cn3C)cn2C)nc1C(=O)NCCCN(C)C |  | > 14 | cytotoxicity at 20 µM [7]: 60%
25 | 5.75 | 5.72 | CSc1ccc(/C=C/c2ccc3cc(C(=O)Nc4cc(C(=O)Nc5cc(C(=O)NCCN6CCOCC6)n(C)c5)n(C)c4)ccc3n2)cc1 | Non-toxic |  | 
26 | 6.06 | 5.94 | COc1cccc(/C=C/c2cccc(C(=O)Nc3cc(C(=O)Nc4nc(C(=O)NCCCN(C)C)c(CCC(C)C)s4)n(C)c3)c2)c1 |  | 6.7 | pIC50 [8]: 5.24
27 | 5.52 | 5.44 | Cn1cc(NC(=O)c2cc(NC(=O)c3cc(NC(=O)c4ccc(Cl)cc4Cl)cn3C)cn2C)cc1C(=O)NCCCN1CCOCC1 | Non-toxic |  | 
28 | 6.49 | 6.54 | CC(C)CCc1sc(NC(=O)c2cc(NC(=O)c3cc(/C=C/c4ccc([N+](=O)[O-])cc4)cn3C)cn2C)nc1C(=O)NCCN1CCOCC1 |  | > 60 | cytotoxicity at 20 µM [7]: 54%
29 | 6.11 | 6.03 | Cn1cc(NC(=O)c2cc(NC(=O)c3ccc(/C=C/c4ccncc4)cc3)cn2C)cc1C(=O)NCCN1CCOCC1 |  | > 26 | cytotoxicity at 20 µM [7]: 63%
30 | 5.47 | 5.56 | CN(C)CCCNC(=O)c1cc(NC(=O)c2cc(NC(=O)c3cc(NC(=N)c4cc5ccccc5cn4)cn3C)cn2C)cn1C |  |  | cytotoxicity at 10 µM [9]: 40%
31 | 5.56 | 5.53 | COc1ccnc(C(=N)Nc2cc(C(=O)Nc3cc(C(=O)Nc4nc(C(=O)NCCN5CCOCC5)c(C(C)C)s4)n(C)c3)n(C)c2)c1 | Non-toxic |  | 
32 | 6.99 | 6.62 | CC(C)CCc1sc(NC(=O)c2cc(NC(=O)c3ccc(/C=C/c4ccc5ccccc5n4)cc3)cn2C)nc1C(=O)NCCN1CCOCC1 | Non-toxic |  | 
33 | 6.41 | 6.23 | CC(C)CCc1sc(NC(=O)c2cc(NC(=O)c3ccc(/C=C/c4ccc5ccccc5c4)cc3)cn2C)nc1C(=O)NCCN1CCOCC1 | Non-toxic | > 50 | 
34 | 5.48 | 5.48 | Cn1cc(NC(=O)c2cc(NC(=O)c3ccc(/C=C/c4ccc(F)cc4)cc3)cn2C)cc1C(=O)NCCN1CCOCC1 | Non-toxic |  | 
35 | 6.33 | 6.20 | CC(C)c1sc(NC(=O)c2cc(NC(=O)c3cc(NC(=O)c4cc5ccccc5cn4)cn3C)cn2C)nc1C(=O)NCCN1CCOCC1 | Non-toxic | > 42 | 
